Results reported in patent US5968526A, “T cell epitopes of the major allergens from Dermatophagoides (house dust mite)” (Immulogic Pharamaceutical Corporation, priority 1995, dated 1999).

Test system: T cell lines primed in vitro with Der p II
Experiment: T cell proliferation with fine map and modified Group II peptides (Example XIV)
Type: cell-based, human
Settings: for positive T cell responses, modified peptides: 21 T cell lines, Der p II primed, FIG. 32a; for T cell response, Group II peptides: FIGS. 32a-b
Method in brief: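 Bulk T cell lines primed with 30 μg/ml native Der p I or Der p II for 5-6 days, rested with IL-2/IL-4, then restimulated 3 days with peptides plus irradiated autologous EBV-B cells or PBMs. Proliferation by 16-20 h [3H]thymidine uptake; stimulation index = peptide CPM / medium CPM, averaged over responding patients.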

## DP II-20.9: modified Der p II peptide; unique peptide (DQVDVKDCANHEIKKVLVPGCHGSE)
  positive T cell responses, modified peptides: all 21 T cell lines responded positively
  T cell response, Group II peptides: positive T cell studies

## DP II-22.14: DKELEAVFEANQNTKTAKAE; unique peptide
  positive T cell responses, modified peptides: all 21 T cell lines responded positively
  T cell response, Group II peptides: positive T cell studies

## DP II-22: QLEAVFEANQNTKTAKIEIKASIDGLEV
  T cell response, Group II peptides: positive T cell studies
